This passage reports pest or weed control results from US12077503B2, “Substituted cyclic amides and their use as herbicides” (FMC CORPORATION, priority 2015, dated 2024).

Holding throughout (format): in vivo
For test [1], the system named is sedge, umbrella (small-flower umbrella sedge, Cyperus difformis). The test can be described thus: Test B flooded paddy test. The note with it: Cyperus difformis, 360 h, Flood, 250 g ai/ha; visually evaluated after 13 to 15 d; read-out: Plant response rating, Sedge, Umbrella (0 to 100 scale where 0 is no effect and 100 is complete control). The procedure, abridged: (§1)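 Percent control, visually estimated after 13–15 d in the greenhouse on a 0–100 basis, compares treated pots with untreated ones; compound was put into paddy water 3 cm above the soil when plants had two leaves.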

The subject of the next test is rice (Oryra sativa). The test can be described thus: Test B flooded paddy test. The note with it: Oryza sativa, 360 h, Flood, 250 g ai/ha; visually evaluated after 13 to 15 d; read-out: Plant response rating, Rice (0 to 100 scale where 0 is no effect and 100 is complete control). The procedure, abridged:
as §1

The test system of test [2] is ducksalad (Heteranthera limosa). The test can be described thus: Test B flooded paddy test. The note with it: Heteranthera limosa, 360 h, Flood, 250 g ai/ha; visually evaluated after 13 to 15 d; read-out: Plant response rating, Ducksalad (0 to 100 scale where 0 is no effect and 100 is complete control). The procedure, abridged:
as §1

Test [3] relates to barnyardgrass (Echinochloa crus-galli). The test can be described thus: Test B flooded paddy test. The note with it: Echinochloa crus-galli, 360 h, Flood, 250 g ai/ha; visually evaluated after 13 to 15 d; read-out: Plant response rating, Barnyardgrass (0 to 100 scale where 0 is no effect and 100 is complete control). In outline:
as §1

In test [4] the test system is ryegrass, Italian (Italian ryegrass, Lolium multiflorum). Description: Test A preemergence. Particulars: Lolium multiflorum, pre-emergence, 240 h, 0 to 100 scale (0 no effect, 100 complete control), read-out: Plant response rating, Ryegrass, Italian. In outline: (§2)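 Ratings of 0 (no effect) to 100 (complete control) come from visual comparison with untreated controls roughly 10 d after treatment. Test chemicals, formulated in a non-phytotoxic solvent mixture with surfactant, were applied either as a preemergence directed soil spray on seeded soil or postemergence to one- to two-leaf plants 2 to 10 cm tall.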

Test [5] relates to pigweed (Amaranthus retroflexus). Description: Test A preemergence. Particulars: Amaranthus retroflexus, pre-emergence, 240 h, 0 to 100 scale (0 no effect, 100 complete control), read-out: Plant response rating, Pigweed.
The test system of test [6] is giant foxtail (Setaria faberii). Description: Test A preemergence. Particulars: Setaria faberi, pre-emergence, 240 h, 0 to 100 scale (0 no effect, 100 complete control), read-out: Plant response rating, Foxtail, Giant. In outline: as §2
The subject of test [7] is barnyardgrass (Echinochloa crus-galli). Description: Test A preemergence. Particulars: Echinochloa crus-galli, pre-emergence, 240 h, 0 to 100 scale (0 no effect, 100 complete control), read-out: Plant response rating, Barnyardgrass. In outline:
as §2

The subject of test [8] is ragweed (common ragweed, Ambrosia elatior). The test can be described thus: Test A preemergence. The note with it: Ambrosia artemisiifolia, pre-emergence, 240 h, 0 to 100 scale (0 no effect, 100 complete control), read-out: Plant response rating, Ragweed. In outline: as §2
Another test concerns Kochia (Kochia scoparia). Description: Test A preemergence. The note with it: Bassia scoparia, pre-emergence, 240 h, 0 to 100 scale (0 no effect, 100 complete control), read-out: Plant response rating, Kochia. In outline: as §2
Test [9] concerns ryegrass, Italian (Italian ryegrass, Lolium multiflorum). The test can be described thus: Test A postemergence. Particulars: Lolium multiflorum, post-emergence, 240 h, Postemergence, read-out: Plant response rating, Ryegrass, Italian. In outline:
as §2

The subject of test [10] is pigweed (Amaranthus retroflexus). Description: Test A postemergence. Particulars: Amaranthus retroflexus, post-emergence, 240 h, Postemergence, read-out: Plant response rating, Pigweed. The procedure, abridged: as §2
Test [11] deals with giant foxtail (Setaria faberii). Description: Test A postemergence. Particulars: Setaria faberi, post-emergence, 240 h, Postemergence, read-out: Plant response rating, Foxtail, Giant. The procedure, abridged: as §2
The test system of test [12] is barnyardgrass (Echinochloa crus-galli). The test can be described thus: Test A postemergence. The note with it: Echinochloa crus-galli, post-emergence, 240 h, Postemergence, read-out: Plant response rating, Barnyardgrass. The procedure, abridged:
as §2

The mark [13] stands for this setting: 125 g ai/ha, visual injury after approx. 10 d, 0 to 100 scale, 0 no effect, 100 complete control.
Where [14] appears, read: 500 g ai/ha, visual injury, 0 to 100 scale (0 no effect, 100 complete control), approx. 10 d.

In the case of `Cc1ccc([C@H]2CN(C)C(=O)[C@@H]2C(=O)Nc2ccccc2F)cc1Cl` [Compound 1384], the pest or weed control at 250 g/ha in test [1] stood at 0%; in the test on rice (Oryra sativa), 40%; in test [2] it was 100%; in test [3] it was 65%. Also, the pest or weed control at 500 g/ha in test [4] (500 g ai/ha, preemergence) was 70%; in test [5] (500 g ai/ha, preemergence), 30%; in [6] (500 g ai/ha, preemergence), 90%; in test [7] (500 g ai/ha, preemergence) it was 90%; in [8] (500 g ai/ha, preemergence) it was 0%; with Kochia (Kochia scoparia) (500 g ai/ha, preemergence), 70%. Moreover, the pest or weed control at 500 g/ha in [9] (setting [14]) worked out at 30%; in test [10] (setting [14]), 20%; in [11] (setting [14]), 90%; in [12] (setting [14]), 90%. The pest or weed control at 125 g/ha in test [4] (Preemergence, 125 g ai/ha) came out at 30%; in test [5] (Preemergence, 125 g ai/ha), 30%; in test [6] (Preemergence, 125 g ai/ha) it was 90%; in test [7] (Preemergence, 125 g ai/ha), 90%; in [8] (Preemergence, 125 g ai/ha), 0%; in the test on Kochia (Kochia scoparia) (Preemergence, 125 g ai/ha) it was 30%. Also, the pest or weed control at 125 g/ha came out at 30% in [9] (setting [13]), 0% in test [10] (setting [13]), 80% in test [11] (setting [13]) and 90% in test [12] (setting [13]).
